Measurements reported in patent US20110039762A1, “TARGETED ANTIMICROBIAL MOIETIES” (C3 JIAN, INC., priority 2009, published 2011).
Entries after “also recorded” stand apart in the source; their conditions may differ.

What was measured:
[1] = system: microorganisms (e.g., bacteria, yeasts, fungi); experiment: Targeting peptide binding to target microorganisms (Table 3); settings: preferably 1x PBS; for Target(s) (microorganisms bound by the targeting peptide): peptide binding in aqueous buffers varied by peptide solubility; for Target(s): microorganism(s) the targeting peptide binds, peptide binding conducted in aqueous buffers varied by peptide solubility
[2] = system: E. faecalis; experiment: Kill or inhibit growth/proliferation; morphology, biofilm and growth disruption (Tables 5, 6); type: cell-based, Enterococcus faecalis; set-up: key: A: Peptide aggregates; B: Less hyphal formation; Clumps; Diffuse clumps and small polyps; F: Diffuse growth; H: Thin; I: Growth inhibition; Microcolony formation; Rippled; Small polyps; Thick; W: Halo formation on top, microlonies on bottom; also: test concentration or dose not given here
[3] = system: S. pneumoniae; experiment: as above; type: cell-based, Streptococcus pneumoniae; set-up: key: A: Peptide aggregates; B: Less hyphal formation; Clumps; Diffuse clumps and small polyps; F: Diffuse growth; H: Thin; I: Growth inhibition; Microcolony formation; Rippled; Small polyps; Thick; W: Halo formation on top, microlonies on bottom; also: test concentration or dose not given here
[4] = system: MRSA; experiment: as above; type: cell-based, Methicillin-resistant Staphylococcus aureus; set-up: key: A: Peptide aggregates; B: Less hyphal formation; Clumps; Diffuse clumps and small polyps; F: Diffuse growth; H: Thin; I: Growth inhibition; Microcolony formation; Rippled; Small polyps; Thick; W: Halo formation on top, microlonies on bottom; also: test concentration or dose not given here
[5] = system: S. epidermidis; experiment: as above; type: cell-based, Staphylococcus epidermidis; set-up: key: A: Peptide aggregates; B: Less hyphal formation; Clumps; Diffuse clumps and small polyps; F: Diffuse growth; H: Thin; I: Growth inhibition; Microcolony formation; Rippled; Small polyps; Thick; W: Halo formation on top, microlonies on bottom; also: test concentration or dose not given here
[6] = system: microorganisms; experiment: Peptides having multiple activities (targeting/binding, antimicrobial, growth or phenotype altering)
Excerpt: In certain embodiments, peptides described herein can have multiple activities. Thus for example, a peptide can have both binding/targeting activity and antimicrobial activity. Such peptides can be used, e.g., in a chimeric construct, for any or all of these properties. Thus, for example, a peptide designated “B” in Table 8 can be used as a targeting peptide. If it is also designated G or M it can also be used for antimicrobial activity.

PF-677 (chain 1 TCRGAGMH; chain 2 TCRGAGMH; Peptide with targeting and/or antimicrobial activity)
Target(s) (microorganisms bound by the targeting peptide) [1]: Mycobacteria spp
Organism, effect (morphology, biofilm and growth disruption) [2]: E. faecalis (R)
Organism, effect (morphology, biofilm and growth disruption) [3]: S. pneumoniae (D)
Organism, effect (morphology, biofilm and growth disruption) [4]: MRSA (D)
Organism, effect (morphology, biofilm and growth disruption) [5]: S. epidermidis (R)

PF-695 (chain 1 ALSVMLGNIPLVVPNANQL; chain 2 ALSVMLGNIPLVVPNANQL; Peptide with targeting and/or antimicrobial activity)
Target(s) (microorganisms bound by the targeting peptide) [1]: Mycobacteria spp
Organism, effect (morphology, biofilm and growth disruption) [2]: E. faecalis (R)
Organism, effect (morphology, biofilm and growth disruption) [3]: S. pneumoniae (C)
Organism, effect (morphology, biofilm and growth disruption) [4]: MRSA (R)

PF-594: peptide having multiple activities (IVSAIV; Peptide with targeting and/or antimicrobial activity)
Target(s) [1]: C. jeikeium
Organism, effect [2]: E. faecalis (C)
Activities [6]: G B

PF-631: peptide having multiple activities (chain 1 LIIYFSKTGNTARATRQI; chain 2 LIIYFSKTGNTARATRQI; Peptide with targeting and/or antimicrobial activity)
Target(s) (microorganisms bound by the targeting peptide) [1]: S. epidermidis and P. aeruginosa and C. albicans and MRSA and S. pneumoniae and E. faecalis and C. jeikeium
Organism, effect [2]: E. faecalis (H)
Activities [6]: G B
Organism, effect [3]: S. pneumoniae (I)

PF-588: peptide having multiple activities (ESVEAIKAKAIK; Peptide with targeting and/or antimicrobial activity)
Target(s) [1]: S. epidermidis; also recorded: E. coli; also recorded: C. albicans; also recorded: E. faecalis; also recorded: C. jeikeium; also recorded: C. jejuni
Organism, effect [2]: E. faecalis (A)
Activities [6]: G B

DEIKVSDEEIEKFIKENNL [PF-597]
Target(s) (microorganisms bound by the targeting peptide) [1]: P. mirabilis
Organism, effect [2]: E. faecalis (A)
Activities [6]: G B

PF-593: peptide having multiple activities (MEISTLKKEKLHVKDELSQYLANYKK; Peptide with targeting and/or antimicrobial activity)
Target(s) [1]: C. jeikeium
Organism, effect [2]: E. faecalis (A)
Activities [6]: G B

PF-602: peptide having multiple activities (LEKEKKEYIEKLFKTK; Peptide with targeting and/or antimicrobial activity)
Target(s) (microorganisms bound by the targeting peptide) [1]: P. mirabilis; also recorded: C. jeikeium
Organism, effect [2]: E. faecalis (A)
Activities [6]: G B

PF-613: peptide having multiple activities (ADEFAKL; Peptide with targeting and/or antimicrobial activity)
Target(s) (microorganisms bound by the targeting peptide) [1]: C. jeikeium
Organism, effect [2]: E. faecalis (A)
Activities [6]: G B
Organism, effect [4]: MRSA (C)
Organism, effect [5]: S. epidermidis (R)

PF-621: peptide having multiple activities (PPSSFLV; Peptide with targeting and/or antimicrobial activity)
Target(s) (microorganisms bound by the targeting peptide) [1]: S. epidermidis; also recorded: C. albicans
Organism, effect [2]: E. faecalis (H)
Activities [6]: G B
Organism, effect [3]: S. pneumoniae (I)

PF-675 (chain 1 EIIPISPTRRCEMHTMSSAEYRGL; chain 2 EIIPISPTRRCEMHTMSSAEYRGL; Peptide with targeting and/or antimicrobial activity)
Target(s) (microorganisms bound by the targeting peptide) [1]: Mycobacteria spp
Organism, effect (morphology, biofilm and growth disruption) [2]: E. faecalis (R)
Organism, effect (morphology, biofilm and growth disruption) [3]: S. pneumoniae (C)

PF-604: peptide having multiple activities (LMEQVEV; Peptide with targeting and/or antimicrobial activity)
Target(s) (microorganisms bound by the targeting peptide) [1]: S. epidermidis; also recorded: C. albicans; also recorded: C. jeikeium
Organism, effect [2]: E. faecalis (A)
Activities [6]: G B

PF-582 (NLKTIEKECPFCNNKMDIKLKD; Peptide with targeting and/or antimicrobial activity)
Organism, effect [2]: E. faecalis (A)

PF-484: peptide having multiple activities (chain 1 HKKDIRKQVFKN; chain 2 HKKDIRKQVFKN; Peptide with targeting and/or antimicrobial activity)
Target(s) [1]: S. epidermidis; also recorded: M. luteus; also recorded: P. mirabilis; also recorded: E. coli; also recorded: E. faecalis; also recorded: C. jeikeium; also recorded: C. jejuni
Organism, effect [2]: E. faecalis (A)
Activities [6]: G B

PF-618 (KLNTLNKKDNPSLNDQDKNAVLNLLALAK; Peptide with targeting and/or antimicrobial activity)
Organism, effect [2]: E. faecalis (H)
Organism, effect [3]: S. pneumoniae (I)

PF-394: peptide having multiple activities (chain 1 VLKEECYQKN; chain 2 VLKEECYQKN; Peptide with targeting and/or antimicrobial activity)
Target(s) [1]: S. epidermidis and MRSA and C. jejuni
Organism, effect [2]: E. faecalis (A)
Activities [6]: G B
Organism, effect [4]: MRSA (C)

PF-649 (chain 1 CPRYPFVDVGPAGPWRARWRVGS; chain 2 CPRYPFVDVGPAGPWRARWRVGS; Peptide with targeting and/or antimicrobial activity)
Target(s) (microorganisms bound by the targeting peptide) [1]: Mycobacteria spp
Organism, effect (morphology, biofilm and growth disruption) [2]: E. faecalis (R)

PF-643 (chain 1 VRCRL; chain 2 VRCRL; Peptide with targeting and/or antimicrobial activity)
Target(s) (microorganisms bound by the targeting peptide) [1]: Mycobacteria spp
Organism, effect [2]: E. faecalis (R)
Organism, effect [3]: S. pneumoniae (R)
Organism, effect [4]: MRSA (C)

PF-450: peptide having multiple activities (chain 1 HRNLIILQRTIFI; chain 2 HRNLIILQRTIFI; Peptide with targeting and/or antimicrobial activity)
Organism, effect [2]: E. faecalis (C)
Activities [6]: G B
Organism, effect [3]: S. pneumoniae (C)
Organism, effect [4]: MRSA (C)

PF-616: peptide having multiple activities (IVFVVTKEKK; Peptide with targeting and/or antimicrobial activity)
Target(s) (microorganisms bound by the targeting peptide) [1]: C. jeikeium
Organism, effect [2]: E. faecalis (A)
Activities [6]: G B
Organism, effect [5]: S. epidermidis (R)

PF-760: peptide having multiple activities (DHITLDDYEIHDGFNFELYYG; Peptide with targeting and/or antimicrobial activity)
Target(s) (microorganisms bound by the targeting peptide) [1]: S. epidermidis; also recorded: M. luteus
Activities [6]: G B
Organism, effect (morphology, biofilm and growth disruption) [3]: S. pneumoniae (C)
Organism, effect (morphology, biofilm and growth disruption) [4]: MRSA (M)
Organism, effect (morphology, biofilm and growth disruption) [5]: S. epidermidis (M)
